Target: T1, cloned human alpha-1A adrenergic receptors (α1a) (Homo sapiens, UniProt P35348)
T1 construct: expressed in transfected cells; membranes
T1 sequence (P35348 1-466): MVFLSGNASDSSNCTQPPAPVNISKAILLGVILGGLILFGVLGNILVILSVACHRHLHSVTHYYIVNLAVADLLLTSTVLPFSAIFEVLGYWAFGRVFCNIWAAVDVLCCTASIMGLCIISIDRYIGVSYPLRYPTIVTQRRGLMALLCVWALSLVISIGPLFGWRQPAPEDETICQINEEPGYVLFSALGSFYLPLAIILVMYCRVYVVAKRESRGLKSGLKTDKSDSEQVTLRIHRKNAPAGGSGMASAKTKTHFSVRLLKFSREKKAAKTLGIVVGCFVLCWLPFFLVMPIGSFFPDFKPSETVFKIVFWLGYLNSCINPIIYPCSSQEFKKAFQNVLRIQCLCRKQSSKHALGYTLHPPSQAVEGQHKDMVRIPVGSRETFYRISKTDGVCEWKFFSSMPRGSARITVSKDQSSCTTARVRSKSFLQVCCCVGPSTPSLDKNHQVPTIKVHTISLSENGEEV
Test: [3H]Prazosin binding to cloned human alpha-1A adrenergic receptors expressed in CHO cells
Conditions: read-out: halpha1Ki (nM) h = human
Excerpt: ^3H]Prazosin Binding to Cloned Human Alpha-1A Adrenergic Receptors (α1a) Expressed in Chinese Hamster Ovary Cells (CHO)
• Purpose: This in vitro assay is designed as a screen to identify compounds displaying a affinity for the human α1a adrenoceptor subtype expressed in the membrane fragments of CHO cells. The assay measures the ability of the test compounds to displace [^3H] prazosin from α1a sites. • The identification of multiple vascular α1-addrenoceptors (α1a, α1b, α1d) in vitro has provided impetus to define the role(s) of these subtypes in cardiovascular regulation in vivo (Vargas and Gorman, 1995). […] Prazosin is a potent antagonist of the human α1a-adrenoceptor subtype, which has been cloned and is expressed in the membrane fragments of CHO cells. • hα1a receptor: The cloning of the human α1a cDNA was accomplished first by screening a human prostate cDNA library (Clontech), from which a portion of the coding region was obtained. This DNA fragment was then used to screen a human leukocyte genomic library (Clontech), and the rest of the coding sequence was obtained. Later these two fragments were spliced together. The entire coding sequence was then fully sequenced including matching PCR sequence with original genomic coding sequence, thus ensuring splice sites were joined correctly (Schwinn et al., 1995). Once sequenced, the gene was subcloned into the expression vector pcDNA3 (Invitrogen). Plasmid DNA was then used for transfection into CHO cells and G418 resistant clones were isolated. A clone expressing high levels of the hα1a receptor (as determined by mRNA and receptor binding data) was chosen and pharmacologically characterized. • Culture Media Ingredients for Adherent α1a expressing CHO Culture: • A. HAM's F-12 (Celigro) • B. 10% 0.2 micron filtered Fetal Bovine Serum (FBS)(Celigro) • C. 1% 0.2 micron filtered Penicillin-Streptomycin (Celigro) • D. G418 0.2 micron filtered (Geneticin 400 μg/ml)(Celigro) • Cells are cultured using established methods and procedures in either 150×25 mm culture plates (scale up to 100 plates) or a combination of these plates and 70 roller bottles. One culturing/harvest cycle typically requires 2 weeks and yields between 100-400 mg protein. Plates or bottles are incubated at 37° C.+5% CO2. • Storage: Cells are harvested by mechanical scraping, washed using PBS, collected in 250 ml Corning polypropylene centrifuge tubes, spun down (1500 RPM) and resuspended in dH2O 10% DMSO (final volume per harvest is approximately 50 ml). Protein determination is made using the Biorad DC Assay Kit. Finally, the appropriate volume is aliquoted into a 2 ml Corning Cryovial (10 mg/1-1.5 ml) which is stored at −80° C.
• Assay Requirement: 0.5 cryovials per 96 well plate (assay volume=200 μl/well) • [^3H]-Ligand: [7-methoxy-^3H]-Prazosin: 1.0 nM (NEN, NET-823) • 70-87 Ci/mmol • Materials: Phentolamine mesylate (Research Biochemicals Int. #P-131) • 96 well flat bottom plates (Beckman) • Unifilter GF/B Plate (Packard) • Polyethylenimine (Sigma #P-3134) • TomTec or Packard Filtermate 196 Cell Harvesters • Packard TopCount Scintillation Counter • Buffers: A: 50 mM Tris HCl; 0.1% ascorbate, pH 7.7 (incubation buffer) • B: 50 mM Tris HCl; pH 7.7 (wash buffer) • Procedure: Assay additions are as follows (in the order indicated): • Total Binding=50 μl buffer A+50 μl [^3H]prazosin+100 μl membrane • Nonsp. Bd.=50 μl 10 μM phentolamine+50 μl [^3H]prazosin+100 μl membrane • Test Cpd.=50 μl compound+50 μl [^3H]prazosin+100 μl membrane • Compounds to be evaluated are weighed out to yield a 10 mM stock solution in DMSO in a 24 well polystyrene plate. This is diluted to a 0.5 mM stock in dH2O, Serial dilutions in Buffer A are made from which 50 μl additions to the plate are made in duplicate in order to achieve the final concentrations desired. Typically, one 96 well plate is used to evaluate 11 compounds at 4 concentrations (10^−6-10^−9 M) in duplicate. Total binding and nonspecific binding are determined in quadruplicate. […]

SMILES | Ki
O=C(CCCN1CCN(c2csc3cc(F)ccc23)CC1)N(CCO)C1CCCCC1 [compound 826850] | 28.4 nM
O=C(CCCN1CCN(c2csc3cc(C(F)(F)F)ccc23)CC1)N1CCCC1 [compound 826819] | 49 nM
O=C(CCCN1CCN(c2csc3cc(C(F)(F)F)ccc23)CC1)N(CCO)C1CCCCC1 [compound 826810] | 200 nM
CC1CCCC(NC(=O)CCCN2CCN(c3csc4cc(C(F)(F)F)ccc34)CC2)C1 (racemic) [compound 826807] | 166000 nM
CN(C(=O)CCCN1CCN(c2csc3cc(C(F)(F)F)ccc23)CC1)C1CCCCC1 [compound 826808] | 126 nM
CCN(C(=O)CCCN1CCN(c2csc3cc(F)ccc23)CC1)C1CCCCC1 [compound 826849] | 35.2 nM
CCOC(=O)C1CCN(C(=O)CCCN2CCN(c3csc4cc(F)ccc34)CC2)CC1 [compound 826851] | 18.9 nM
CC1CC(C)CN(C(=O)CCCN2CCN(c3csc4cc(C(F)(F)F)ccc34)CC2)C1 (stereo not drawn) [compound 826818] | 124 nM
CC1CCCN(C(=O)CCCN2CCN(c3csc4cc(C(F)(F)F)ccc34)CC2)C1 (stereo not drawn) [compound 826815] | 80.5 nM
O=C(CCCN1CCN(c2csc3cc(C(F)(F)F)ccc23)CC1)NC1CCCC1 [compound 826820] | 129 nM
CC1CCN(C(=O)CCCN2CCN(c3csc4cc(C(F)(F)F)ccc34)CC2)CC1 [compound 826814] | 89.3 nM
CCOC(=O)C1CCN(C(=O)CCCN2CCN(c3csc4cc(C(F)(F)F)ccc34)CC2)CC1 [compound 826811] | 223 nM
O=C(CCCN1CCN(c2csc3cc(F)ccc23)CC1)NC1CCCC1 (racemic) [compound 826860] | 0.516 nM
O=C(CCCN1CCN(c2csc3cc(C(F)(F)F)ccc23)CC1)N1CCC(N2CCCC2)CC1 [compound 826816] | 249 nM
C[C@H]1CC[C@H](NC(=O)CCCN2CCN(c3csc4cc(F)ccc34)CC2)CC1 [compound 826844] | 23.4 nM
CC1CCCCN1C(=O)CCCN1CCN(c2csc3cc(C(F)(F)F)ccc23)CC1 (stereo not drawn) [compound 826813] | 57 nM
O=C(CCCN1CCN(c2csc3cc(C(F)(F)F)ccc23)CC1)N1CCC(O)CC1 [compound 826812] | 658 nM
CN(C)C1CCN(C(=O)CCCN2CCN(c3csc4cc(C(F)(F)F)ccc34)CC2)C1 (stereo not drawn) [compound 826823] | 148 nM
CC1CCCN1C(=O)CCCN1CCN(c2csc3cc(C(F)(F)F)ccc23)CC1 (stereo not drawn) [compound 826822] | 32.2 nM
O=C(CCCN1CCN(c2csc3cc(C(F)(F)F)ccc23)CC1)NC1CCCCC1 [compound 826821] | 1280 nM
CC[C@H]1CC[C@H](NC(=O)CCCN2CCN(c3csc4cc(F)ccc34)CC2)CC1 [compound 826846] | 93.9 nM

Further compounds by falling Ki, results first:

Ki | SMILES
15.3 nM | O=C(CCCN1CCN(c2csc3cc(F)ccc23)CC1)N1CCC(N2CCCC2)CC1 [compound 826856]
12.3 nM | CN(C(=O)CCCN1CCN(c2csc3cc(F)ccc23)CC1)C1CCCCC1 [compound 826848]
9.55 nM | O=C(CCCN1CCN(c2csc3cc(F)ccc23)CC1)NC1CCCCC1 [compound 826861]
9.42 nM | CC1CC(C)CN(C(=O)CCCN2CCN(c3csc4cc(F)ccc34)CC2)C1 (stereo not drawn) [compound 826858]
6.16 nM | O=C(CCCN1CCN(c2csc3cc(F)ccc23)CC1)N1CCC(O)CC1 [compound 826852]
5.44 nM | CCOC(=O)[C@H]1CC[C@H](NC(=O)CCCN2CCN(c3csc4cc(F)ccc34)CC2)CC1 [compound 826845]
4 nM | O=C(CCCN1CCN(c2csc3cc(F)ccc23)CC1)N1CCCC1 [compound 826859]
0.889 nM | CC1CCCN(C(=O)CCCN2CCN(c3csc4cc(F)ccc34)CC2)C1 (stereo not drawn) [compound 826855]
0.637 nM | CC1CCCN1C(=O)CCCN1CCN(c2csc3cc(F)ccc23)CC1 (stereo not drawn) [compound 826862]
0.513 nM | CC1CCCC(NC(=O)CCCN2CCN(c3csc4cc(F)ccc34)CC2)C1 (stereo not drawn) [compound 826847]
0.258 nM | CC1CCCCN1C(=O)CCCN1CCN(c2csc3cc(F)ccc23)CC1 (stereo not drawn) [compound 826853]
0.0713 nM | CC1CCN(C(=O)CCCN2CCN(c3csc4cc(F)ccc34)CC2)CC1 [compound 826854]

Reference: patent US7772252B2, “Heterocyclic substituted carbonyl derivatives and their use as dopamine D3 receptor ligands” (Aventis Pharmaceuticals Inc., priority 2001, dated 2010)
